Assay results from patent US20070270418A1, “Inhibitors of P38 and Methods of Using the Same” (priority 2003, published 2007).
Where two headings read alike, the source gives them in different places.

Columns and labels:
[1] = target: T1, p38α (Homo sapiens, UniProt Q16539); assay: p38 MAP Kinase assay, ATF2 phosphorylation (ELISA); assay type: biochemical; settings: 40 μM ATP
T1 construct: p38 MAP Kinases are recombinant human full-length proteins with an amino-terminal GST fusion; GST (N); purchased Upstate (Charlottesville, Va.); host or cells: E. coli
T1 sequence (Q16539 whole entry, the tested form may be a part): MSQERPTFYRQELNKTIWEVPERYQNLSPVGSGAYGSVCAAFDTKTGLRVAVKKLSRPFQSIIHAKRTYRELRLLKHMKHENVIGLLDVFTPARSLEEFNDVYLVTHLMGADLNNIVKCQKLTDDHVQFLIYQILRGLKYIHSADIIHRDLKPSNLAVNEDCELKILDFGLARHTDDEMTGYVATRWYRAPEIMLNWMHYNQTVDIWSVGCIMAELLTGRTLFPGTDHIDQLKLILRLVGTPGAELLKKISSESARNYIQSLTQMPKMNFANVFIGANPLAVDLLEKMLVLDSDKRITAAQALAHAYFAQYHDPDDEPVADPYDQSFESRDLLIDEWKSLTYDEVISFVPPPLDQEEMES
Procedure, shortened: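 ATF2 Thr69 phosphorylation was quantified by ELISA (HRP/TMB, 450 nm) after EDTA termination. Reactions: 6 ng GST-fused full-length human p38α, 15 min compound pre-incubation at room temperature, then 30 min at 37° C with 40 μM ATP and 1.25 μM GST-ATF2 (aa 19-96), pH 7.5 HEPES buffer.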

[2] = tested on: TNFα release from THP-1 cells; assay: TNFα release from LPS-stimulated THP-1 cells; assay type: cell-based; settings: LPS 10 μg/ml, 18 hours, read-out: TNFα (THP-1) IC50
Procedure, shortened: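 THP-1 cells (10^6 cells/ml on resuspension) preincubated with compound 30 min at 37°C, 5% CO2, final DMSO ≤0.5%, then stimulated with 10 μg/ml LPS for 18 h (TNFα). Supernatants collected for TNFα analysis.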

SMILES | IC50 [1] [nM] | melting point [°C] | IC50 ([2]; Homo sapiens, THP-1, 18 h) [nM] | IC50 [2] [nM]
CS(=O)(=O)c1nccc(-c2c(-c3ccc(F)cc3)nc3sccn23)n1 [CXL, 6-(4-fluorophenyl)-5-(2-methanesulfonyl-pyrimidin-4-yl)-imidazo[2,1-b]thiazole] | 966 | 197 to 198 | 4860 | –
CC[C@H](C)[C@@H](CO)Nc1nccc(-c2c(-c3ccc(F)cc3)nc3occn23)n1 [LXIV] | 174 | – | 13.2 | –
O[C@H]1CCCC[C@@H]1Nc1nccc(-c2c(-c3ccc(F)cc3)nc3occn23)n1 [LXIX] | 83.3 | – | 11.4 | –
C[C@@H](Nc1nccc(-c2c(-c3ccc(F)cc3)nc3occn23)n1)[C@@H](O)c1ccccc1 [LXVIII] | 79.1 | – | 140 | –
O=C1CCCN1CCCNc1nccc(-c2c(-c3ccc(F)cc3)nc3occn23)n1 [LXVII] | 33.4 | – | 177 | –
Fc1ccc(-c2nc3occn3c2-c2ccnc(NCCN3CCOCC3)n2)cc1 [LXVI] | 75.9 | – | 193 | –
CCCC[C@@H](CO)Nc1nccc(-c2c(-c3ccc(F)cc3)nc3occn23)n1 [LXV] | 86.6 | – | 26.3 | –
Fc1ccc(-c2nc3occn3c2-c2ccnc(NCc3ccncc3)n2)cc1 [LXXIII] | 234 | – | 96.6 | –
COc1ccc(CNc2nccc(-c3c(-c4ccc(F)cc4)nc4occn34)n2)cc1OC [LXXIV] | 72.8 | – | 519 | –
COc1cccc(CNc2nccc(-c3c(-c4ccc(F)cc4)nc4occn34)n2)c1OC [LXXIX] | 342 | – | 58.4 | –
OCCN(CCO)CCNc1nccc(-c2c(-c3ccc(F)cc3)nc3occn23)n1 [LXXVIII] | 370 | – | 318 | –
C[C@@H](Nc1nccc(-c2c(-c3ccc(F)cc3)nc3occn23)n1)[C@@H](O)c1ccc(O)cc1 [LXXVI] | 6.72 | – | 41.2 | –
Oc1cccc(C(O)CNc2nccc(-c3c(-c4ccc(F)cc4)nc4occn34)n2)c1 (centres unmarked) [LXXV] | 5.09 | – | 26.6 | –
OC[C@@H](Nc1nccc(-c2c(-c3ccc(F)cc3)nc3occn23)n1)[C@H](O)c1ccccc1 [LXXXIII] | 185 | – | 346 | –
CC(CO)(CO)Nc1nccc(-c2c(-c3ccc(F)cc3)nc3occn23)n1 [LXXXII] | 184 | – | 50.5 | –
CS(=O)(=O)c1ccc(CNc2nccc(-c3c(-c4ccc(F)cc4)nc4occn34)n2)cc1 [LXXXI] | 1230 | – | 1230 | –
Fc1ccc(-c2nc3occn3c2-c2ccnc(NCC3CCCNC3)n2)cc1 (centres unmarked) [LXXXVIII] | 39.9 | – | 87 | –
OCC(CO)(CO)Nc1nccc(-c2c(-c3ccc(F)cc3)nc3occn23)n1 [LXXXVI] | 227 | – | 150 | –
Fc1ccc(-c2nc3occn3c2-c2ccnc(NCc3cccnc3)n2)cc1 [LXXXV] | 66.3 | – | 39.3 | –
Oc1ccc(C(O)CNc2nccc(-c3c(-c4ccc(F)cc4)nc4occn34)n2)cc1 (centres unmarked) [LXXX] | 82.5 | – | 88.4 | –
CCOC(=O)N1CCC(Nc2nccc(-c3c(-c4ccc(F)cc4)nc4occn34)n2)CC1 [LXX] | 3.33 | – | 12.2 | –
CCCCC(CO)Nc1nccc(-c2c(-c3ccc(F)cc3)nc3occn23)n1 (centres unmarked) [LX] | 20.5 | – | 69.7 | –
CC(C)C[C@H](CO)Nc1nccc(-c2c(-c3ccc(F)cc3)nc3occn23)n1 [L] | 86.6 | – | 125 | –
CSc1nccc(-c2c(-c3ccc(F)cc3)nc3occn23)n1 [X, 6-(4-fluorophenyl)-5-[2-(methylsulfanyl)pyrimidin-4-yl]imidazo[2,1-b][1,3]oxazole] | 1130 | 144 to 145 | – | –

SMILES | IC50 [1] [nM] | melting point [°C] | IC50 ([2]; Homo sapiens, THP-1, 18 h) [nM] | IC50 [2] [nM]
OCCN(CCO)c1nccc(-c2c(-c3ccc(F)cc3)nc3occn23)n1 [XCIII] | 120 | – | 457 | –
Fc1ccc(CNc2nccc(-c3c(-c4ccc(F)cc4)nc4occn34)n2)cc1 [XCIV] | 90.9 | – | 394 | –
Fc1ccc(-c2nc3occn3c2-c2ccnc(N3CCOCC3)n2)cc1 [XCIX] | 71.1 | – | 854 | –
OC1CCN(c2nccc(-c3c(-c4ccc(F)cc4)nc4occn34)n2)CC1 [XCVIII] | 134 | – | 951 | –
CC(C)[C@@H](CO)Nc1nccc(-c2c(-c3ccc(F)cc3)nc3occn23)n1 [XII] | 16.7 | – | 11.8 | –
Fc1ccc(-c2nc3occn3c2-c2ccnc(NC[C@@H]3CCCO3)n2)cc1 [XLII] | 80.8 | – | 11.2 | –
Fc1ccc(-c2nc3occn3c2-c2ccnc(NCc3cccs3)n2)cc1 [XLIX] | 5.87 | – | 20 | –
CC(CO)Nc1nccc(-c2c(-c3ccc(F)cc3)nc3occn23)n1 (centres unmarked) [XLI] | 1.75 | – | – | 49.2
Fc1ccc(-c2nc3occn3c2-c2ccnc(NCc3ccccn3)n2)cc1 [XLVIII] | 74 | – | 96.8 | –
OCCCCCNc1nccc(-c2c(-c3ccc(F)cc3)nc3occn23)n1 [XLVI] | 23.1 | – | 17.2 | –
Fc1ccc(-c2nc3occn3c2-c2ccnc(NC[C@H]3CCCO3)n2)cc1 [XLV] | 11.7 | – | 11.2 | –
Fc1ccc(-c2nc3occn3c2-c2ccnc(NC3CC3)n2)cc1 [XVIII] | 0.44 | – | 11.2 | –
CCC(O)CNc1nccc(-c2c(-c3ccc(F)cc3)nc3occn23)n1 (centres unmarked) [XVII] | 15.7 | – | 15.9 | –
C=CCNc1nccc(-c2c(-c3ccc(F)cc3)nc3occn23)n1 [XXIII] | 11.9 | – | 9.08 | –
CC[C@@H](CO)Nc1nccc(-c2c(-c3ccc(F)cc3)nc3occn23)n1 [XXII] | 3.7 | – | 18.6 | –
Fc1ccc(-c2nc3occn3c2-c2ccnc(NC3CCC3)n2)cc1 [XXIV] | 15 | – | 1.78 | –
Fc1ccc(-c2nc3occn3c2-c2ccnc(NCC3CC3)n2)cc1 [XXIX] | 4.28 | – | 4.45 | –
CC[C@H](CO)Nc1nccc(-c2c(-c3ccc(F)cc3)nc3occn23)n1 [XXVII] | 20.5 | – | 6.08 | –
OCC(O)CNc1nccc(-c2c(-c3ccc(F)cc3)nc3occn23)n1 (centres unmarked) [XXXIII] | 143 | – | 57 | –
CCCC(CO)Nc1nccc(-c2c(-c3ccc(F)cc3)nc3occn23)n1 (centres unmarked) [XXXIV] | 2.19 | – | 19.7 | –
Fc1ccc(-c2nc3occn3c2-c2ccnc(NCc3ccco3)n2)cc1 [XXXVII] | 5.95 | – | 21.5 | –
Cc1ccc(CNc2nccc(-c3c(-c4ccc(F)cc4)nc4occn34)n2)o1 [XXXVI] | 103 | – | 76.6 | –
CC(CO)Nc1nccc(-c2c(-c3ccc(F)cc3)nc3occn23)n1 (centres unmarked) [XXX] | 34.8 | – | – | 12.3

The next lines start with the values.

IC50 [1] [nM] | melting point [°C] | IC50 ([2]; Homo sapiens, THP-1, 18 h) [nM] | IC50 [2] [nM] | SMILES
253 | – | 599 | – | NCCNc1nccc(-c2c(-c3ccc(F)cc3)nc3occn23)n1 [LXXXIX]
49.9 | – | 188 | – | NCCCNc1nccc(-c2c(-c3ccc(F)cc3)nc3occn23)n1 [XCI]
1.41 | – | 12.1 | – | COCCCNc1nccc(-c2c(-c3ccc(F)cc3)nc3occn23)n1 [XCVII]
3.42 | – | 18 | – | CCNc1nccc(-c2c(-c3ccc(F)cc3)nc3occn23)n1 [XCV]
41.6 | – | 338 | – | OCCNc1nccc(-c2c(-c3ccc(F)cc3)nc3occn23)n1 [XIV]
100 | – | 1140 | – | N#CCCNc1nccc(-c2c(-c3ccc(F)cc3)nc3occn23)n1 [XIX]
1.56 | – | 13.5 | – | CCOCCCNc1nccc(-c2c(-c3ccc(F)cc3)nc3occn23)n1 [XLIII]
10.5 | – | 34.5 | – | CCSCCNc1nccc(-c2c(-c3ccc(F)cc3)nc3occn23)n1 [XLIV]
31.4 | – | 13.7 | – | C[C@@H](CO)CCNc1nccc(-c2c(-c3ccc(F)cc3)nc3occn23)n1 [XLVII]
79 | – | 93 | – | OCCOCCNc1nccc(-c2c(-c3ccc(F)cc3)nc3occn23)n1 [XL]
37.1 | – | – | 19.3 | CC(O)CNc1nccc(-c2c(-c3ccc(F)cc3)nc3occn23)n1 (centres unmarked) [XVI]
30.7 | – | 18.8 | – | CC(O)CNc1nccc(-c2c(-c3ccc(F)cc3)nc3occn23)n1 (centres unmarked) [XV]
6.86 | – | 13.9 | – | C[C@H](O)CNc1nccc(-c2c(-c3ccc(F)cc3)nc3occn23)n1 [XXI]
3.47 | – | 15.3 | – | CCCNc1nccc(-c2c(-c3ccc(F)cc3)nc3occn23)n1 [XXVIII]
480 | – | 100 | – | CN(C)CCNc1nccc(-c2c(-c3ccc(F)cc3)nc3occn23)n1 [XXVI]
21.5 | – | 466 | – | OCCCNc1nccc(-c2c(-c3ccc(F)cc3)nc3occn23)n1 [XXV]
19 | – | 4.89 | – | COC[C@H](C)Nc1nccc(-c2c(-c3ccc(F)cc3)nc3occn23)n1 [XXXII]
1.6 | – | 10.3 | – | COCC(C)Nc1nccc(-c2c(-c3ccc(F)cc3)nc3occn23)n1 (centres unmarked) [XXXI]
343 | – | 168 | – | CN(C)CCCNc1nccc(-c2c(-c3ccc(F)cc3)nc3occn23)n1 [XXXVIII]
17.9 | – | 17.9 | – | CC(CO)CCNc1nccc(-c2c(-c3ccc(F)cc3)nc3occn23)n1 (centres unmarked) [XXXV]
24.3 | – | 65 | – | COCCNc1nccc(-c2c(-c3ccc(F)cc3)nc3occn23)n1 [XX]
